# According to the SangsterLogP compilation:
# Test: method code SF-AS, from DOI: 10.1016/0165-022x(96)00008-5, PMID: 8844325
row,logP,SMILES
1,1.39,CC(C)(C)[N+]([O-])=Cc1ccc([N+](=O)[O-])cc1
2,0.84,CC(C)(C)[N+]([O-])=Cc1ccccc1[N+](=O)[O-]
3,1.41,COc1cccc(C=[N+]([O-])C(C)(C)C)c1
4,1,CC(C)(C)[N+]([O-])=Cc1cccc(O)c1
5,1.3,CC(C)(C)[N+]([O-])=Cc1cccc([N+](=O)[O-])c1
6,2.39,CC(C)(C)[N+]([O-])=Cc1ccc(Cl)cc1
7,1.03,CC1(C)CCC(c2ccccc2)=[N+]1[O-]
8,-0.82,CC(C)(C)[N+]([O-])=Cc1cc[n+]([O-])cc1
9,2.52,CC(C)(C)[N+]([O-])=Cc1ccccc1Br
10,0.58,CC(C)(C)[N+]([O-])=Cc1ccc(O)cc1
11,1.58,Cc1cccc(C=[N+]([O-])C(C)(C)C)c1

# Second part, the molecule before the results:
row,SMILES,logP
1,CC(C)(C)[N+]([O-])=Cc1ccc(C#N)cc1,0.52
2,CC(C)(C)[N+]([O-])=Cc1ccccc1O,1.31
3,CC(C)(C)[N+]([O-])=Cc1ccncc1,0.4
4,Cc1ccccc1C=[N+]([O-])C(C)(C)C,1.53
5,COc1cc(OC)c(C=[N+]([O-])C(C)(C)C)c(OC)c1,1.19
6,CC(C)(C)[N+]([O-])=Cc1ccc(Br)cc1,1.98
7,CC(C)(C)[N+]([O-])=Cc1ccc(C(=O)O)cc1,1.05
8,CC1(C)CCC(C(F)(F)F)=[N+]1[O-],0.2
9,CC1(C)C=[N+]([O-])C(C)(C)C1,-0.15
